Reference: patent publication US11608337B2, “Heterocyclic compounds as immunomodulators” (Incyte Corporation, priority 2016, dated 2023)

Target: PD-1/PD-L1 protein/protein interaction (Homo sapiens (Human), UniProt Q9NZQ7)
Experiment: PD-1/PD-L1 Homogeneous Time-Resolved Fluorescence (HTRF) Binding Assay
Conditions: recombinant human PD-L1 (19-238) His-tag, human PD-1 (25-167) Fc tag; 25° C., PBS pH 7.4
Experimental: Example A. PD-1/PD-L1 Homogeneous Time-Resolved Fluorescence (HTRF) Binding Assay
The assays were conducted in a standard black 384-well polystyrene plate with a final volume of 20 μL. Inhibitors were first serially diluted in DMSO and then added to the plate wells before the addition of other reaction components. The final concentration of DMSO in the assay was 1%. The assays were carried out at 25° C. in the PBS buffer (pH 7.4) with 0.05% Tween-20 and 0.1% BSA. Recombinant human PD-L1 protein (19-238) with a His-tag at the C-terminus was purchased from AcroBiosystems (PD1-H5229). Recombinant human PD-1 protein (25-167) with Fc tag at the C-terminus was also purchased from AcroBiosystems (PD1-H5257). PD-L1 and PD-1 proteins were diluted in the assay buffer and 10 μL was added to the plate well. Plates were centrifuged and proteins were preincubated with inhibitors for 40 minutes. The incubation was followed by the addition of 10 μL of HTRF detection buffer supplemented with Europium cryptate-labeled anti-human IgG (PerkinElmer-AD0212) specific for Fc and anti-His antibody conjugated to SureLight®-Allophycocyanin (APC, PerkinElmer-AD0059H). After centrifugation, the plate was incubated at 25° C. for 60 min. before reading on a PHERAstar FS plate reader (665 nm/620 nm ratio). Final concentrations in the assay were […], 10 nM PD-L1, 1 nM europium anti-human IgG and 20 nM anti-His-Allophycocyanin. IC50 determination was performed by fitting the curve of percent control activity versus the log of the inhibitor concentration using the GraphPad Prism 5.0 software.
Data obtained for the Example compounds using the PD-1/PD-L homogenous time-resolved fluorescence (HTRF) binding assay described in Example A is provided in Table 1.

Chain of PD-1/PD-L1 protein/protein interaction (Q9NZQ7 19-238): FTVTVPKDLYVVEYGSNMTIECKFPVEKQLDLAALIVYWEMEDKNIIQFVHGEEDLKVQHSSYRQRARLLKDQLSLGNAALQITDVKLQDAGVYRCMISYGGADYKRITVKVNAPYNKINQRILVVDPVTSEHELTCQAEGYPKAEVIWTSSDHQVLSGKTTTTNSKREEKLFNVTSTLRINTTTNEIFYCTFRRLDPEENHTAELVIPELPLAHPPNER

Compound: Cc1c(-c2ccccc2)cccc1-c1nc2c(s1)CCNC2 [Example 1, 2-(2-methylbiphenyl-3-yl)-4,5,6,7-tetrahydro[1,3]thiazolo[4,5-c]pyridine]
- IC50: 500 to 10000 nM

Compound: Cc1c(-c2ccccc2)cccc1-c1cn2c(n1)CNCC2 [Example 20, 2-(2-methylbiphenyl-3-yl)-5,6,7,8-tetrahydroimidazo[1,2-a]pyrazine]
- IC50: 500 to 10000 nM

Compound: Cc1c(-c2nc3c(s2)CNCC3)ccnc1-c1ccc2c(c1)OCCO2 [Example 26, 2-[2-(2,3-dihydro-1,4-benzodioxin-6-yl)-3-methylpyridin-4-yl]-4,5,6,7-tetrahydro[1,3]thiazolo[5,4-c]pyridine]
- IC50: 500 to 10000 nM

Compound: COc1cc(OC)cc(-c2cccc(-c3nc4c(s3)CNCC4)c2C)c1 [Example 34, 2-(3′,5′-dimethoxy-2-methylbiphenyl-3-yl)-4,5,6,7-tetrahydro[1,3]thiazolo[5,4-c]pyridine]
- IC50: ≤ 100 nM

Compound: Cc1c(-c2ccsc2)cccc1-c1nc2c(s1)CNCC2 [Example 27, 2-[2-methyl-3-(3-thienyl)phenyl]-4,5,6,7-tetrahydro[1,3]thiazolo[5,4-c]pyridine]
- IC50: 100 to 500 nM

Compound: Cc1c(-c2ccccc2)cccc1-n1cc2c(n1)CNCC2 [Example 18, 2-(2-methylbiphenyl-3-yl)-4,5,6,7-tetrahydro-2H-pyrazolo[3,4-c]pyridine]
- IC50: ≤ 100 nM

Compound: Cc1c(-c2ccccc2)cccc1-c1nc2c(s1)CN(CCCC(=O)O)CC2 [Example 8, 4-[2-(2-methylbiphenyl-3-yl)-6,7-dihydro[1,3]thiazolo[5,4-c]pyridin-5(4H)-yl]butanoic acid]
- IC50: ≤ 100 nM

Compound: Cc1c(-c2ccc(F)cn2)cccc1-c1nc2c(s1)CNCC2 [Example 31, 2-[3-(5-fluoropyridin-2-yl)-2-methylphenyl]-4,5,6,7-tetrahydro[1,3]thiazolo[5,4-c]pyridine]
- IC50: 500 to 10000 nM

Compound: Cc1c(-c2ccccc2)cccc1-c1nc2c(s1)CN(CCO)CC2 [Example 4, 2-[2-(2-methylbiphenyl-3-yl)-6,7-dihydro[1,3]thiazolo[5,4-c]pyridin-5(4H)-yl]ethanol]
- IC50: ≤ 100 nM

Compound: Cc1c(-c2ccccc2)cccc1-c1nc2c(s1)CN(C1CCC(CC#N)CC1)CC2 (stereo not shown) [Example 11, {4-[2-(2-methylbiphenyl-3-yl)-6,7-dihydro[1,3]thiazolo[5,4-c]pyridin-5(4H)-yl]cyclohexyl}acetonitrile]
- IC50: 100 to 500 nM
